# Source: patent US6641851B2, “Herbal laxative preparation” (The Himalaya Drug Company, priority 2001, dated 2003)
# Tested on: Wistar rats
# Assay: Laxative test in rats
# Format: in vivo, rat
# Details: for laxative activity: 50 mg/kg b.wt, in words
# Experimental: Animals Wistar rats (180-200 g) of either sex were used for the study. The animals were housed in standard laboratory conditions and provided with a temperature of 22±3° C., relative humidity of 50-55% and a 12-hour light/dark cycle. Drinking water and a synthetic pelleted diet (Lipton India Ltd., Mumbal) were supplied ad libitum. The Ethical Committee of the institution approved the experimental protocol. All the animals received humane care according to the criteria outlined in the “Guide for the care and use of Laboratory Animals” prepared by the National Academy of Sciences and published by The National Institute of Heath. Laxative Test in Rats Twenty-four animals of either sex were randomly divided into 4 groups of 6 rats each. Food was withdrawn 12 hrs. before the experiment. […] The animals were then housed individually in cages lined with blotting paper and observed for 24 hrs. The total number of wet fecal produced from each group was noted [Akah P A, Oli […](4):327]. The laxative property of the one of the selected extract KP-4 was further tested to determine the laxative property in relation to the dosage administered in rats. For the purpose the rats were grouped in four groups. Group I received saline and served as control. […] The animals were then housed individually in cages lined with blotting paper and observed for 24 hrs. The total number of wet fecal produced from each group was noted.
SMILES,"No of Animals Responded (50 mg/Kg, compounds from KP-1B)","No. of faeces (50 mg/Kg, compounds from KP-1B)","On set of Action (50 mg/Kg, compounds from KP-1B)","Percentage of Action (50 mg/Kg, compounds from KP-1B)","laxative activity (listed as C8, 50 mg/kg)","laxative activity (listed as ferulic acid, 50 mg/kg)"
"COc1cc(/C=C/C(=O)O)ccc1O [Compound C-8, Ferulic acid]",10/10,7.80 ± 0.80,179.00 ± 22.66 min,100,significant laxative action,promising activity
"COc1cc(C(=O)O)ccc1O [Compound C-9, Vanillic acid]",Nil,,,Nil,,
